Assay results from the RepoRT retention time repository (doi:10.1002/rcm.4015).

Experiment: RP, Thermo Scientific Hypersil GOLD, 5 × 2.1 mm, 1.9 µm, 45 °C, 0.25 mL/min, estimated dead time 0.044 min; A: water + 0.1% formic acid, pH 3; B: 50% acetonitrile + 50% isopropanol + 0.1% formic acid, pH 3; gradient (min/%B) 0/5 0.5/5 5/50 5.5/95 6.5/95 10/5
Conditions: stereoisomer not certain

Row | SMILES | LC retention time [min]
1 | CCCCCCCCC=CCCCCCCCC(=O)OC(COC(=O)CCCCCCCCCCCCCCC)COP(=O)([O-])OCC[N+](C)(C)C (stereo not given) [PC(34:1)] | 7.23
2 | CCCCCC=CCC=CCCCCCCCCCC(=O)OC(COC(=O)CCCCCCCCCCCCC)COP(=O)([O-])OCC[N+](C)(C)C (stereo not given) [PC(34:2)] | 6.89
3 | CCC=CCC=CCC=CCCCCCCCC(=O)OC(COC(=O)CCCCCCCCCCCCCCC)COP(=O)([O-])OCC[N+](C)(C)C (stereo not given) [PC(34:3)] | 7.4
4 | CCCCCC=CCC=CCC=CCC=CCCCC(=O)OC(COC(=O)CCCCCCCCCCCCCCC)COP(=O)(O)OCC[N+](C)(C)C (stereo not given) [PC(36:4)] | 7.43
5 | CCCCCC=CCC=CCC=CCCCCC(=O)OCC(COP(=O)([O-])OCC[N+](C)(C)C)OC(=O)CCCCCCCCCCCCCCCCCCC (stereo not given) [PC(38:3)] | 7.4
6 | CCCCCC=CCC=CCC=CCC=CCCCCCC(=O)OC(COC(=O)CCCCCCCCCCCCCCC)COP(=O)([O-])OCC[N+](C)(C)C (stereo not given) [PC(38:4)] | 7.4
7 | CCCCCCCCCCCCCC=CC(O)C(COP(=O)([O-])OCC[N+](C)(C)C)NC(=O)CCCCCCCCCCCCCC (stereo not given) [SM(33:1)] | 6.69
8 | CCCCCCCCCCCCCC(=O)OCC(O)COP(=O)([O-])OCC[N+](C)(C)C (stereo not given) [lysoPC(14:0)] | 6.62
9 | CCCCCCCCCCCCCCCC(=O)OCC(O)COP(=O)([O-])OCC[N+](C)(C)C (stereo not given) [lysoPC(16:0)] | 6.89
10 | CCCCCCC=CCCCCCCCC(=O)OCC(O)COP(=O)([O-])OCC[N+](C)(C)C (stereo not given) [lysoPC(16:1)] | 6.67
11 | CCCCCCCCC=CCCCCCCCC(=O)OCC(O)COP(=O)([O-])OCC[N+](C)(C)C (stereo not given) [lysoPC(18:1)] | 6.93
12 | CCCCCC=CCC=CCCCCCCCC(=O)OCC(O)COP(=O)([O-])OCC[N+](C)(C)C (stereo not given) [lysoPC(18:2)] | 6.72
13 | CCCCCC=CCC=CCC=CCC=CCCCC(=O)OCC(O)COP(=O)([O-])OCC[N+](C)(C)C (stereo not given) [lysoPC(20:4)] | 6.69
14 | CCCCCCCCCCCCCCCCOCC(O)COP(=O)([O-])OCC[N+](C)(C)C (stereo not given) [lysoPC(O-16:0)] | 7.08
15 | CCCCCCCCC=CCCCCCCCCOCC(O)COP(=O)([O-])OCC[N+](C)(C)C (stereo not given) [lysoPC(O-18:1)] | 7.1
16 | CCCCCCCCCCCCCCCCCC(=O)OCC(O)COP(=O)(O)OCCN (stereo not given) [lysoPE(18:0)] | 6.75
17 | CCCCCCCCC=CCCCCCCCC(=O)OCC(O)COP(=O)(O)OCCN (stereo not given) [lysoPE(18:1)] | 6.92
18 | CCCCCC=CCC=CCC=CCC=CCCCC(=O)OCC(O)COP(=O)(O)OCCN (stereo not given) [lysoPE(20:4)] | 6.69

Other lines, results leading:

Row | LC retention time [min] | SMILES
19 | 6.97 | CCCCCC=CCC=CCC=CCC=CCCCC(=O)OC(COC(=O)CCCCCCCCCCCCC)COP(=O)([O-])OCC[N+](C)(C)C (stereo not given) [PC(34:4)]
20 | 7.38 | CCCCCC=CCC=CCC=CCC=CCCCC(=O)OC(COC(=O)CCCCCC=CCCCCCCCC)COP(=O)([O-])OCC[N+](C)(C)C (stereo not given) [PC(36:5)]
21 | 7.41 | CCCCCC=CCC=CCC=CCC=CCC=CCCC(=O)OC(COC(=O)CCCCCCCCCCCCCCC)COP(=O)([O-])OCC[N+](C)(C)C (stereo not given) [PC(38:5)]
22 | 7.39 | CCC=CCC=CCC=CCC=CCC=CCC=CCCC(=O)OC(COC(=O)CCCCCCCCCCCCCCC)COP(=O)([O-])OCC[N+](C)(C)C (stereo not given) [PC(38:6)]
23 | 7.37 | CCC=CCC=CCC=CCC=CCC=CCC=CCCC(=O)OC(COC(=O)CCCCCC=CCCCCCCCC)COP(=O)([O-])OCC[N+](C)(C)C (stereo not given) [PC(38:7)]
24 | 7.4 | CCCCCC=CCC=CCC=CCC=CCC=CCCC(=O)OC(COC(=O)CCCCCCCCCCCCCCCCC)COP(=O)([O-])OCC[N+](C)(C)C (stereo not given) [PC(40:5)]
25 | 7.14 | CCC=CCC=CCC=CCC=CCC=CCC=CCCC(=O)OC(COC(=O)CCCCCCCCCCCCCCCCC)COP(=O)([O-])OCC[N+](C)(C)C (stereo not given) [PC(40:6)]
26 | 7.4 | CCCCCC=CCC=CCC=CCC=CCCCCCC(=O)OCC(COP(=O)([O-])OCC[N+](C)(C)C)OC(=O)CCCCC=CCC=CCC=CCCCCC (stereo not given) [PC(40:7)]
27 | 6.59 | CCC=CCC=CCC=CCCCCCCCC(=O)OCC(O)COP(=O)([O-])OCC[N+](C)(C)C (stereo not given) [lysoPC(18:3)]
28 | 6.8 | CCCCCCCCC=CCC=CCC=CCCCC(=O)OCC(O)COP(=O)([O-])OCC[N+](C)(C)C (stereo not given) [lysoPC(20:3)]
29 | 6.55 | CCC=CCC=CCC=CCC=CCC=CCCCC(=O)OCC(O)COP(=O)([O-])OCC[N+](C)(C)C (stereo not given) [lysoPC(20:5)]
30 | 6.65 | CCC=CCC=CCC=CCC=CCC=CCC=CCCC(=O)OCC(O)COP(=O)([O-])OCC[N+](C)(C)C (stereo not given) [lysoPC(22:6)]
